Results as given in patent US20150297672A1, “Alpha- and gamma-MSH analogues” (TXP Pharma GmbH, priority 2014, published 2015).

Legend:
human MC1r [1] = target: T1, human MC1r (Homo sapiens, UniProt Q01726); assay: Test 3: receptor efficacy, cAMP enzyme immunoassay in stably transfected HEK cells expressing the human MC1r; assay type: cell-based; set-up: expressed in transfected cells; conditions: for Emax: HEK293, IBMX present, read-out: maximal efficacy Emax (max efficacy expressed as percent of αMSH); for EC50: IBMX present
Description: The immune modulating effects of melanocortins are mediated through MC1r and/or MC3r stimulation on immune competent cells in tissues, organs and plasma. MC1r and/or MC3r are expressed in immune competent cells including monocytes, macrophages, neutrophils t-cells and dendritic cells. Stimulation of the MCr1 and/or MC3r is associated with attenuation of cytokine production and activation of pro-resolving effects. The binding affinity and the receptor efficacy (alternative expression is potency) of a given melanocortin together, in some embodiments, makes up the overall efficacy of a given compound.
Alternatively MCR1 receptor efficacy was tested in stably transfected HEK cells expressing the human MC1r. Cells were grown in Dulbecco's modified Eagle's medium 1885 supplemented with 10% fetal calf serum, 2 mm glutamine, and 0.01 mg/ml gentamicin. The expression plasmids containing the cDNAs encoding the wild-type or the mutated receptors were expressed after transfection according to the calcium phosphate precipitation method. The cells were kept frozen until the experiments where the cells was grown in RPMI 1640 medium supplemented with 2 mm 1-glutamine adjusted to contain 1.5 g/liter sodium bicarbonate, 4.5 g/liter glucose, 10 mm HEPES, 1.0 mm sodium pyruvate, and 10% fetal bovine serum.
Cells (2.5×10^5 cells per well) were incubated for 15 min at 37° C. in 1 ml of freshly prepared binding buffer supplemented with 5.10-4 M of the non-specific phosphodiesterase inhibitor 3-Isobutyl-1-methylxanthine (IBMX), 40 μg/ml bacitracin, and various concentrations of test compound. After incubation, cells were placed on ice, medium was removed, and cells lysed. Measurement of cAMP in the samples was conducted by use of a commercial cAMP Enzyme Immunoassay kit from Cayman Chemicals (Cat. No 581001). All cAMP concentrations were expressed relative to the total number of cells in the individual samples.

human MC1r [2] = target: T1, human MC1r; assay: Test 2: receptor efficacy, cAMP production (HTRF) in CHO-K1 cells expressing MC1r; conditions: nM of cAMP, IBMX 1 mM
Description: CHO-Kl cells expressing either the MC1r or the MC3r grown in media without antibiotic were detached by gentle flushing with PBS-EDTA (5 mM EDTA), recovered by centrifugation and resuspended in assay buffer (KRH: 5 mM KCl, 1.25 mM MgSO4, 124 mM NaCl, 25 mM HEPES, 13.3 mM Glucose, 1.25 mM KH2PO4, 1.45 mM CaC12, 0.5 g/1 BSA).
12 μl of cells were mixed with 12 μl of the test compound at increasing concentrations in 96 wells plates and then incubated 30 min at room temperature. cAMP production was determined after addition of a lysis buffer and 1 hour incubation, by use of competitive immunoassay using cryptate-labeled anti-cAMP and d2-labeled cAMP (HTRF kit from CisBio) with Delta F percentage values calculated according to the manufacturer specification. Dose response curves were performed in parallel with test compounds, and reference compounds.
The HTRF technology is a titration assay based on a competition between labeled cAMP (exogenous) and cAMP produced by the cell after activation of the MCr. The dynamic range of the assay was 3-4 fold meaning that the linear range (which enables conversion from raw data to nM of cAMP) is within that range.
Data is presented as mean values.

[3] = test system: normal human lung fibroblasts (NHLF); conditions: TGFβ1-induced NHLF, at higher doses; U.S. provisional application 61/785,631; cited from earlier work

T1 sequence (Q01726 whole entry): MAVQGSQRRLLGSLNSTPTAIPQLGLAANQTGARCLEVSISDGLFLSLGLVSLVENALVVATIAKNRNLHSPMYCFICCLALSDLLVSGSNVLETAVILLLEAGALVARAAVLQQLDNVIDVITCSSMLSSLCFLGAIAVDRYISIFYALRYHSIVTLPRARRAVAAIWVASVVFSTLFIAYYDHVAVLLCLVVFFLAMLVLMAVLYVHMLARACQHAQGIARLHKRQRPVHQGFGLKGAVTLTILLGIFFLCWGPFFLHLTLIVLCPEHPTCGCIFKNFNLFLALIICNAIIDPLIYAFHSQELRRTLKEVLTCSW

Emax (human MC1r [1]) [%]	EC50 (human MC1r [1]) [nM]	maximal efficacy (Emax) (human MC1r [2]) [nM]	Compound	effect on ECM collagen [3]
62 ± 8	1.35		CCCC[C@H](NC(=O)[C@H](CO)NC(=O)[C@H](Cc1ccc(O)cc1)NC(=O)[C@H](CO)NC(=O)[C@H](CCCCN)NC(=O)[C@H](CCCCN)NC(=O)[C@H](CCCCN)NC(=O)[C@H](CCCCN)NC(=O)[C@H](CCCCN)NC(=O)[C@H](CCCCN)NC(C)=O)C(=O)N[C@@H](CCC(=O)O)C(=O)N[C@@H](Cc1c[nH]cn1)C(=O)N[C@H](Cc1ccccc1)C(=O)N[C@@H](CCCNC(=N)N)C(=O)N[C@@H](Cc1c[nH]c2ccccc12)C(=O)NCC(=O)N[C@@H](CCCCN)C(=O)N1CCC[C@H]1C(=O)N[C@H](C(N)=O)C(C)C [Ac(Lys)6-NDP-αMSH, Ac(Lys)6-Ser-Tyr-Ser-Nle Glu-His-(D-Phe)-Arg-Trp-Gly-Lys-Pro-Val-NH2]	
72 ± 5	2.12	~3	CSCC[C@H](NC(=O)[C@H](CO)NC(=O)[C@H](Cc1ccc(O)cc1)NC(=O)[C@H](CO)NC(=O)[C@H](CCCCN)NC(=O)[C@H](CCCCN)NC(=O)[C@H](CCCCN)NC(=O)[C@H](CCCCN)NC(=O)[C@H](CCCCN)NC(=O)[C@H](CCCCN)NC(C)=O)C(=O)N[C@@H](CCC(=O)O)C(=O)N[C@@H](Cc1c[nH]cn1)C(=O)N[C@@H](Cc1ccccc1)C(=O)N[C@@H](CCCNC(=N)N)C(=O)N[C@@H](Cc1c[nH]c2ccccc12)C(=O)NCC(=O)N[C@@H](CCCCN)C(=O)N1CCC[C@H]1C(=O)N[C@H](C(N)=O)C(C)C [Ac(Lys)6-αMSH]	
		~3	CSCC[C@H](NC(=O)[C@H](CO)NC(=O)[C@H](Cc1ccc(O)cc1)NC(=O)[C@H](CO)NC(=O)[C@H](CCCCNC(=O)[C@H](CCCCN)NC(=O)[C@H](CCCCN)NC(C)=O)NC(C)=O)C(=O)N[C@@H](CCC(=O)O)C(=O)N[C@@H](Cc1c[nH]cn1)C(=O)N[C@@H](Cc1ccccc1)C(=O)N[C@@H](CCCNC(=N)N)C(=O)N[C@@H](Cc1c[nH]c2ccccc12)C(=O)NCC(=O)N[C@@H](CCCCN)C(=O)N1CCC[C@H]1C(=O)N[C@H](C(N)=O)C(C)C [α-MSH analogue #1]	
			ACTH: Adrenocorticotropic hormone, the native ligand to the type 2 receptor (MC2r) (SYSMEHFRWGKPVGKKRRPVKVYPNGAEDESAEAFPLEF; Corticotropin; UniProt P01189 138-176, looked up)	statistically significant reduction in ECM collagen
